Measured values: patent publication US11191754B2, “Inhibitors of nucleotidyl transferases and uses in herpes and hepatitis viral infections therefor” (Saint Louis University, priority 2015, dated 2021)
Where two headings read alike, the source gives them in different places.

Experiments:
[1] = MTT cytotoxicity assay in HepDES19 cells; assay type: cell-based; settings: human
Experimental: 1.0×10^4 HepDES19 cells per well were seeded in 96-well plates and incubated in DMEM with 10% FBS plus 1% P/S, 1% non-essential amino acids, and 1% glutamine. Compounds were diluted in medium to the indicated concentrations plus 1% DMSO and added to cells 24 hours after plating, with each concentration tested in triplicate. Medium containing the compound was refreshed daily for the next two days. Thiazolyl blue tetrazolium bromide (MTT, Sigma-Aldrich) was added to 0.25 mg/mL, the cultures were incubated for 60 minutes, metabolites were solubilized in acidic isopropanol, and absorbance was read at 570 nm.

HBV [2] = assay: HBV replication assay in HepDES19 cells; assay type: cell-based, hepatitis B virus; set-up: key to Qualitative HBV replication inhibition assay: **: + DNA suppression <25% and − DNA suppression >60%; *: + DNA suppression <50% of − DNA suppression; settings: for EC50: Hepatitis B virus, HBV replication, HepDES19 cells; for Qualitative HBV replication inhibition assay: plus- vs minus-polarity DNA strand suppression
Experimental: Inhibition of HBV replication was measured in HepDES19 cells as previously described in Cai, et al. (2014). Cells were seeded into 6-well plates and incubated in DMEM/F12, 10% fetal bovine serum (FBS), 1% penicillin/streptomycin (P/S) with 1 μg/mL tetracycline. Tetracycline was withdrawn after 24 hours. The test compound was applied to duplicate wells 48 hours later in medium containing a final DMSO concentration of 1%, and medium containing the compound was refreshed daily for the following two days. Cells were harvested and non-encapsidated nucleic acids were digested with micrococcal nuclease (New England Biolabs). HBV DNA was purified from capsids using QIAamp Cador Pathogen Mini Kit (Qiagen) with proteinase K incubation overnight at 37° C. TaqMan PCR was performed for 40 cycles at an annealing temperature of 60° C. Primers and probe (IDT Inc.) for the plus-polarity strand were: 5′[…]3′ (SEQ ID NO: 1); 5′[…]3′ (SEQ ID NO: 2); 5′/56-FAM/[…]/ZEN/[…]/3IABkFQ (SEQ ID NO: 3). Primers and probe for the minus-polarity strand were: 5′[…]3′ (SEQ ID NO: 4; 5′[…]3′ (SEQ ID NO: 5); 5′/56-FAM/[…]/ZEN/[…]/3IABkFQ (SEQ ID NO: 6).

HBV [3] = assay: Chou-Talalay combination analysis with Lamivudine against HBV replication; assay type: cell-based, hepatitis B virus; settings: together with Lamivudine; CI <1.0 indicates synergy
Description: Current nucleos(t)ide analog therapy for HBV has converted hepatitis type B from an implacably progressing illness to a controllable disease. However, patients are only very rarely cured, in part due to the incomplete inhibition of HBV replication. The inventors hypothesized that the novel RNaseH inhibitors would work synergistically with the existing nucleos(t)ide analogs because the two classes of drugs target physically distinct active sites on the viral polymerase protein. […] RNAseH inhibitors from two different chemical classes were employed, compound #1 [2-hydroxyisoquinoline-1,3(2H,4H)-dione], an HID, and #46 (β-thujaplicinol), an α-hydroxytropolone, were tested. Chou-Talaly analysis yields a combination index (CI). CI values <1.0 indicate synergy, CIs of approximately 1.0 indicate additive interactions, and CI values >1.0 indicate antagonism. CI values are calculated at various efficacy levels (EC50, EC75, EC90, and EC95), and a weighted CI value favoring higher efficacy levels is also generated. FIGS. 4A & 4B show the results of four experiments employing compound #1 and three with compound #46. […] Therefore, RNAseH inhibitors act strongly synergistically with an approved nucleos(t)ide analog drug against HBV.

HBV RNAseH = assay: Biochemical RNAseH assay with patient-derived variant HBV RNAseH enzymes; set-up: species or system hepatitis B virus; settings: four genotype D patient-derived enzymes; compound at its IC50 (FIGS. 5A & 5B)
Experimental: RNaseH activity was measured using an oligonucleotide-directed RNA cleavage assay as previously described in Hu, et al., Tavis, et al., and Cai, et al. (2013; 2013; and 2014, respectfully). Briefly, 6 μL protein extract was mixed on ice with an internally ^32P-labeled 264 nt RNA derived from the Duck Hepatitis B Virus genome (DRF+ RNA) plus 3 μg oligonucleotide D2507- or its inverse-complement oligonucleotide D2526+ as a negative control. This mixture was incubated with test compounds in 50 mM Tris pH 8.0, 190 mM NaCl, 5 mM MgCl2, 3.5 mM DTT, 0.05% NP40, 6% glycerol, and 1% DMSO at 42° C. for 90 minutes. Cleavage products were resolved by denaturing polyacrylamide gel electrophoresis, detected by autoradiography, and quantified using ImageJ. Non-specific background values were determined from the incorrect oligonucleotide negative control lane and subtracted from all experimental values. IC50 values were then calculated with GraphPad Prism using three-parameter log(inhibitor) vs. response non-linear curve fitting with the curve minimum set to zero to reflect background subtraction.
HBV has 8 genotypes differing in sequence by 8%. Genetic diversity in the RNAseH domain is about 6%, which is easily high enough to modulate viral sensitivity to RNAseH inhibitors. […]

[4] = Mouse liver microsome assay; assay type: in vitro ADME; settings: for ER: extraction ratio; for ER / Non-P450 turn-over / half-life at 1 μM: mouse liver microsomes; for half-life at 1 μM / CLint scaled at 1 μM: 1 μM compound; for half-life at 1 μM: read-out: t ½; for CLint scaled at 1 μM: mouse
Experimental: Microsomal incubations are run at a final P450 concentration of 0.25 μM. […] The mixture is prewarmed for 5 min at 37° C. To initiate the reaction a 12 mM stock of NAPDH (1.2 mM, final concentration) is added to the warmed microsomal mixture and aliquots are removed at 0, 5, 10, 20 and 30 min. […] Samples are vortexed and spun down at 3200 rpm for 5 min. The supernant is transferred to 96-deep well plates and run on LC/MS/MS.

HSV-2 = assay: Anti-HSV-2 replication assay (virus yield by plaque assay on Vero cells); assay type: cell-based, herpes simplex virus 2 (HSV-2); settings: for HSV-2 Log10 suppression 5 μM / HSV-2 Log10 suppression 50 μM: Vero cells, moi 0.1, 24 h, relative to DMSO control
Experimental: (§1) Vero cells were maintained in Dulbecco's modified Eagle's medium (DMEM) containing 3% newborn calf serum, 3% bovine growth serum, 2 mM L-glutamine and 100 IU/mL penicillin and 0.1 mg/mL streptomycin (P/S). HSV-1 #6 and HSV-2 #1 are de-identified clinical isolates from the Saint Louis University Hospital. Stocks were prepared after a single passage in cell culture and were titered by standard plaque assay (Knipe and Spang, 1982). Wild-type HSV-2 used in FIG. 3 was laboratory strain 333. […] Virus stocks were grown and titered on Vero cells (Morrison and Knipe, 1996).
(§2) Compounds to be screened were diluted in PBS supplemented to contain 2% newborn calf serum and 1% glutamine, and added in 100 μL volume to confluent cell monolayers in 24-well cluster plates. Immediately thereafter HSV-1 and HSV-2, diluted in the supplemented PBS medium, were added to the wells in 50 μl volume such that the final concentration of compound was 50 μM, 5 μM and 1 μM and the multiplicity of infection was 0.1. The plates were incubated at 37° C. for 1 hour and then virus-containing inoculum was removed and the wells were washed once in PBS. Compound, diluted to 50 μM, 5 μM and 1 μM in DMEM supplemented to contain 2% newborn calf serum and 1% each penicillin/streptomycin, was added at 0.5 mL/well. Plates were incubated at 37° C. an additional 23 hours, and then the plates were visually inspected through a phase contrast microscope for cytopathic effect, and for toxic effect. The entire contents of each well were collected by scraping. Samples were frozen at −80° C., and then subsequently thawed, sonicated, and infectious virus titer was determined by standard plaque assay on Vero cell monolayers. Because the compounds were dissolved at 10 mM in 100% DMSO, equivalent dilutions of DMSO were added to additional wells as a control for effects of the diluent. Each experiment was repeated once. EC50 values were determined as above except that serial dilutions of the compound to be tested were prepared starting at 50 μM. The inhibitory values were calculated by non-linear curve-fitting in GraphPad Prism.

HSV-1 = assay: Anti-HSV-1 replication assay (virus yield by plaque assay on Vero cells); assay type: cell-based, herpes simplex virus 1 (HSV-1); settings: for HSV-1 Log10 suppression 5 μM / HSV-1 Log10 suppression 50 μM: Vero cells, moi 0.1, 24 h, relative to DMSO control
Experimental: as §1, §2

in vitro = assay type: cell-based; settings: African green monkey
Experimental: Qualitative assessments of cytotoxicity were done visually by inspecting the cells in the primary screening assays. For the quantitative assays, cells were plated in 96-well plates at 1.0×10^4 per well. The next day the compounds were added at 0.78 to 100 μM in a final concentration of 1% (v/v) DMSO, and the cells were incubated for 24 hours under conditions identical to those employed for the viral replication inhibition assays. Mitochondrial toxicity was measured by incubating the cells with 0.25 mg/mL thiazolyl blue tetrazolium bromide (MTT, SigmaAldrich Chemical Co.), the cultures were incubated for 60 min, metabolites were solubilized in acidic isopropanol, and absorbance was read at 570 nm. CC50 values were calculated by non-linear curve fitting using GraphPad Prism.
A quantitative toxicity measurement was conducted. Toxicity was assessed by measuring release of intracellular proteases into the culture medium due to cellular lysis. Cells were plated in 96-well plates at 1.0×10^4 per well. The next day compound was added in concentrations ranging from 0.78 to 100 μM in a final concentration of 1% (v/v) DMSO. The cells were incubated for 24 hours under conditions identical to those employed for the viral replication inhibition assays, and then […] according to the manufacturer's instructions. […]

[5] = tested on: TK-deficient mutant of HSV-2 strain 333, ΔTK-; assay: Replication of TK-deficient HSV-2 mutant in Vero cells; assay type: cell-based, herpes simplex virus 2 (HSV-2); settings: 5 μM, 24 h (FIG. 3)
Experimental: Vero cells were maintained in Dulbecco's modified Eagle's medium (DMEM) containing 3% newborn calf serum, 3% bovine growth serum, 2 mM L-glutamine and 100 IU/mL penicillin and 0.1 mg/mL streptomycin (P/S). HSV-1 #6 and HSV-2 #1 are de-identified clinical isolates from the Saint Louis University Hospital. Stocks were prepared after a single passage in cell culture and were titered by standard plaque assay (Knipe and Spang, 1982). Wild-type HSV-2 used in FIG. 3 was laboratory strain 333. The TK-deficient mutant of HSV-2 strain 333, ΔTK-, contains a 180-bp KpnI-KpnI deletion in the UL23 open reading frame that abrogates TK activity (McDermott, et al, 1984). ΔTK—was the generous gift of Jim Smiley. Virus stocks were grown and titered on Vero cells (Morrison and Knipe, 1996).
ACV is a nucleoside analog prodrug that must be phosphorylated by the viral thymidine kinase (TK) for it to become a substrate for the viral DNA polymerase (Elion, et al., 1977). HSV TK-deficient mutants are therefore insensitive to ACV. […] Vero cells were infected with a laboratory strain of HSV-2 and an engineered TK-deficient mutant of the same strain. […] ACV 5 μM inhibited wild-type HSV-2 replication 100-fold, but it had little effect on the TK-mutant (FIG. 3).

Structure (SMILES)	CC50 at 3 days [1]	EC50 (HBV [2])	Qualitative HBV replication inhibition assay (HBV [2])	HSV-2 Log10 suppression 5 μM (HSV-2)	HSV-2 Log10 suppression 50 μM (HSV-2)	HSV-1 Log10 suppression 5 μM (HSV-1)	HSV-1 Log10 suppression 50 μM (HSV-1)	also measured
NCc1cccc(-c2ccc(Cc3cc(=O)n(O)c4ncccc34)cc2)c1 [Compound 153]	10 µM	4.1 µM	**					
CC(C)c1ccc(O)c(=O)c(O)c1 [#46, β-thujaplicinol]								weighted combination index (CI) (HBV [3]): 0.44±0.3; inhibition of HBV RNAseH (HBV RNAseH): about 50%
Cc1ccc(O)c(=O)c(O)c1 [#210]	71 µM	1.5 µM	**					
Cc1cc(C2CCCCC2)n(O)c(=O)c1 [#41]								ER [4]: 0.16; Non-P450 turn-over [4]: No; half-life at 1 μM [4]: > 120 min; CLint scaled at 1 μM ([4]; microsomes, read-out: CL ‘hep): 14 mL/min/kg; CLint scaled at 1 μM ([4]; microsomes, read-out: CL’int): 17 mL/min/kg
O=c1cc(NCc2ccccc2)c2cccnc2n1O [#151]	15 µM	4.7 µM	**					suppression of HSV-2 replication in cell culture (HSV-2; 5 μM or less): strongly suppressed; suppression of HSV-1 replication in cell culture (HSV-1; 5 μM or less): strongly suppressed
Nc1nc2c(ncn2COCCO)c(=O)[nH]1 [Acyclovir, acyclovir, reference compound]				3.91 log10	5.25 log10	3.61 log10	5.39 log10	CC50 at 24 h (in vitro): > 100 µM; HSV-2 Log10 suppression 5 μM (HSV-2; listed as acyclovir): 3.6 log10; inhibition of TK-mutant HSV-2 [5]: little effect; HSV-1 Log10 suppression 5 μM (HSV-1; listed as acyclovir): 4.22 log10
C/C(=N\c1ccccc1N)c1c(C)cc(=O)n(O)c1O [#208]	15 µM	0.69 µM	**	0.11 log10	0.26 log10	0.15 log10	2.63 log10	ER [4]: <0.1; Non-P450 turn-over [4]: No; half-life at 1 μM [4]: > 120 min; CLint scaled at 1 μM ([4]; liver microsomes, read-out: CL ‘hep): 163 mL/min/kg
CC(C)=CCc1ccc(=O)c(O)cc1C(C)C [#49]	9 µM							
Cc1cc(COc2ccc(Oc3ccc(Cl)cc3)cc2)n(O)c(=O)c1 [#211]	30 µM	13 µM	**	0.04 log10	1.81 log10	0.08 log10	1.6 log10	
